Drawing on ChEMBL document CHEMBL4392887, “17- nor-Cephalotane-Type Diterpenoids from Cephalotaxus fortunei” (J Nat Prod, 2019), this text covers inhibition and IC50 for 20 molecules.

Where a name gives a salt, the structure may show the parent alone. The source made the active and inactive calls. The rule behind the calls is not given here.

Test [1] relates to A549. Description: Cytotoxicity in human A549 cells assessed as inhibition of cell viability at 50 uM incubated for 72 hrs by CCK-8 assay. In kind it is functional. The settings on record: A549, 72 h. A general note: Tetrazolium assays rely on reduction of a dye to a coloured formazan, in cell work by metabolically active cells.
In test [2] the test system is HL-60. Nature of the test: Cytotoxicity in human HL60 cells assessed as inhibition of cell viability at 50 uM incubated for 72 hrs by CCK-8 assay. In kind it is functional. The settings on record: HL-60, 72 h.
Test [3] deals with A549. Nature of the test: Cytotoxicity in human A549 cells assessed as inhibition of cell viability incubated for 72 hrs by CCK-8 assay. The settings on record: for IC50: A549, 72 h. It is filed as functional, cell-based.
Test [4] concerns HL-60. Nature of the test: Cytotoxicity in human HL60 cells assessed as inhibition of cell viability incubated for 72 hrs by CCK-8 assay. It is filed as functional, cell-based. The settings on record: for IC50: HL-60, 72 h.

In general, inhibition refers to the drop in the measured response relative to a control, in per cent. On to `CC1C[C@H]2OC(=O)[C@]13CC[C@@H]1CC(=O)C[C@H](C)C4=C1[C@@H]3[C@@H]2C4=O` (stereo not given in full), for which the inhibition at 50 µM in test [1] and in test [2] was below 50% in each case.
By IC50 is commonly meant the concentration that gives 50% inhibition. As to `Cc1cc(=O)cc2c3c1C[C@@H]1[C@@H]4OC(=O)[C@](C[C@H]2O)(C(C)C4O)[C@H]31` (stereo not given in full), the IC50 in test [3] was determined as 25.4 µM; in test [4] it was 38.4 µM.
As to `Cc1cc(=O)cc2c3c1[C@H](O)[C@@H]1[C@@H]4OC(=O)[C@](CC2)(C(C)C4O)[C@H]31` (stereo not given in full), the half-maximal inhibitory concentration (IC50) in test [3] came to 2.4 µM; in test [4] it was 2.2 µM.
For `Cc1cc(=O)cc2c3c1[C@@H](O)[C@@H]1[C@H]4CC(C)[C@@](C=C2)(C(=O)O4)[C@]31O` (stereo not given in full), the inhibition entry in test [3] and in test [4] was “inactive” in each case.
As for `CC1C[C@H]2OC(=O)[C@]13CC[C@@H]1C[C@@H](O)C[C@H](C)C4=C1[C@@H]3[C@@H]2C4=O` (stereo not given in full), the inhibition at 50 µM in test [1] and in test [2] was below 50% throughout.
As for `Cc1cc(=O)cc2c3c1[C@@H]1OC4C(C)[C@@]5(C[C@H]2O)C(=O)O[C@H]4[C@]1(O)[C@@H]35` (stereo not given in full), the IC50 was determined as 11.5 µM in test [3] and 17.2 µM in test [4].
Take `CC1C[C@H]2OC(=O)[C@]13CC[C@@H]1CC(=O)C[C@H](C)C4=C1[C@]3(O)[C@@H]2C4=O` (stereo not given in full): the inhibition at 50 µM in test [1] and in test [2] was below 50% throughout.
Consider `CC1C[C@H]2OC(=O)[C@]13CC[C@@H]1C[C@H](O)C[C@H](C)C4=C1[C@@H]3[C@@H]2C4=O` (stereo not given in full), for which the inhibition at 50 µM in test [1] and in test [2] was below 50% throughout.
For `COc1cccc2c1C(=O)c1c(O)c3c(c(O)c1C2=O)C[C@@](O)(C(=O)CO)C[C@@H]3O[C@H]1C[C@H](N)[C@H](O)[C@H](C)O1` [DOXORUBICIN HYDROCHLORIDE], the IC50 turned out to be 0.44 µM in test [3] and 0.075 µM in test [4].
For `Cc1cc(=O)cc2c3c1C[C@H]1[C@@H]3[C@]3(C=C2)C(=O)O[C@@H]1CC3C` (stereo not given in full), in that order: 1 µM and 9.8 µM.
Consider `CC1C(O)[C@H]2OC(=O)[C@]13CC[C@@H]1C[C@@H](O)C[C@H](C)C4=C1[C@]3(O)[C@@H]2C4=O` (stereo not given in full), for which the inhibition at 50 µM in test [1] and in test [2] was below 50% in each case.
As to `CC1C(O)[C@H]2OC(=O)[C@]13CC[C@]14C[C@@H](O)[C@H](O1)[C@@](C)(O)C1=C4[C@@H]3[C@@H]2C1` (stereo not given in full), the inhibition at 50 µM in test [1] and in test [2] was below 50% each time.
Regarding `Cc1cc(=O)cc2c3c1C[C@@H]1[C@H]4CC(C)[C@@](CC2)(C(=O)O4)[C@]31O` (stereo not given in full), in test [3], the inhibition result was “Active”. Moreover, the inhibition entry in test [4] was “inactive”.
For `CO[C@@]12c3c4cc(=O)cc(C)c3C[C@@H]1[C@H]1CC(C)[C@@]2(CC4)C(=O)O1` (stereo not given in full), in that order: “inactive” and “inactive”.
For `Cc1cc(=O)cc2c3c1[C@@H](O)[C@H]1[C@@H]3[C@]3(CC2)C(=O)O[C@@H]1CC3C` (stereo not given in full), the IC50 in test [3] is 10.3 µM; in test [4], above 50 µM.
For `Cc1cc(=O)cc2c3c1C[C@@H]1[C@H]4CC(C)[C@@](C=C2)(C(=O)O4)[C@]31O` (stereo not given in full), in that order: 5.7 µM and 10 to 20 µM.
In the case of `Cc1cc(=O)cc2c3c1C[C@]1(O)[C@H]4CC(C)[C@@](CC2)(C(=O)O4)[C@]31O` (stereo not given in full), the IC50 in test [3] was 4.5 µM; in test [4], 6.8 µM.
In the case of `CC1=C[C@@H](O)[C@H](O)[C@@]2(O)CC[C@]34C(=O)O[C@@H]5C(O[C@H]6C1=C2[C@@H]3[C@@H]56)C4C` (stereo not given in full), the inhibition at 50 µM in test [1] and in test [2] was below 50% each time.
`Cc1cc(=O)cc2c3c1[C@H](O)[C@H]1[C@@H]3[C@]3(CC2)C(=O)O[C@@H]1CC3C` (stereo not given in full): the IC50 is 2.4 µM in test [3] and 3.5 µM in test [4].
For `Cc1cc(=O)cc2c3c1C[C@H]1[C@@H]3[C@]3(C[C@H]2O)C(=O)O[C@@H]1CC3C` (stereo not given in full), in that order: 22 µM and above 50 µM.
